# Results as given in patent publication US8192962B2, “Processes for detecting toxic substances” (Daikin Industries, Ltd., priority 2001, dated 2012).
# Tested on: Stress protein genes
# Test: DNA chip mRNA expression in yeast, stress protein genes (Table 6)
# Format: cell-based, Saccharomyces cerevisiae S288C
# Method in brief: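 Chemical exposure: 2 h, log-phase S. cerevisiae S288C, YPD, 25° C., dose set to inhibit growth without death. Profiling: mRNA labeled by reverse transcription with Cy3- or Cy5-dUTP, hybridized to whole-genome array. Output: fluorescence ratio against untreated culture.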
smiles,measurement,setting,value
"CN(C)C(=S)SSC(=S)N(C)C [(10), Tetramethylthiuram disulfide]",The level of expressed mRNA in the presence of chemical substance/The level of expressed mRNA in the absence of chemical substance,yeast gene YAL005C,1.8
same,The level of expressed mRNA in the presence of chemical substance/The level of expressed mRNA in the absence of chemical substance,yeast gene YAL015C,2.7
same,The level of expressed mRNA in the presence of chemical substance/The level of expressed mRNA in the absence of chemical substance,yeast gene YBL075C,6.7
same,The level of expressed mRNA in the presence of chemical substance/The level of expressed mRNA in the absence of chemical substance,yeast gene YBL093C,1.1
same,The level of expressed mRNA in the presence of chemical substance/The level of expressed mRNA in the absence of chemical substance,yeast gene YBR044C,1.2
same,The level of expressed mRNA in the presence of chemical substance/The level of expressed mRNA in the absence of chemical substance,yeast gene YBR054W,1.2
same,The level of expressed mRNA in the presence of chemical substance/The level of expressed mRNA in the absence of chemical substance,yeast gene YBR067C,1.0
same,The level of expressed mRNA in the presence of chemical substance/The level of expressed mRNA in the absence of chemical substance,yeast gene YBR072W,43.4
same,The level of expressed mRNA in the presence of chemical substance/The level of expressed mRNA in the absence of chemical substance,yeast gene YBR169C,4.3
same,The level of expressed mRNA in the presence of chemical substance/The level of expressed mRNA in the absence of chemical substance,yeast gene YCL035C,2.3
same,The level of expressed mRNA in the presence of chemical substance/The level of expressed mRNA in the absence of chemical substance,yeast gene YCR021C,1.0
same,The level of expressed mRNA in the presence of chemical substance/The level of expressed mRNA in the absence of chemical substance,yeast gene YCR060W,1.1
same,The level of expressed mRNA in the presence of chemical substance/The level of expressed mRNA in the absence of chemical substance,yeast gene YCR083W,1.8
same,The level of expressed mRNA in the presence of chemical substance/The level of expressed mRNA in the absence of chemical substance,yeast gene YDL022W,1.8
same,The level of expressed mRNA in the presence of chemical substance/The level of expressed mRNA in the absence of chemical substance,yeast gene YDL025C,4.5
same,The level of expressed mRNA in the presence of chemical substance/The level of expressed mRNA in the absence of chemical substance,yeast gene YDR033W,1.0
same,The level of expressed mRNA in the presence of chemical substance/The level of expressed mRNA in the absence of chemical substance,yeast gene YDR077W,0.7
same,The level of expressed mRNA in the presence of chemical substance/The level of expressed mRNA in the absence of chemical substance,yeast gene YDR098C,1.5
same,The level of expressed mRNA in the presence of chemical substance/The level of expressed mRNA in the absence of chemical substance,yeast gene YDR155C,1.3
same,The level of expressed mRNA in the presence of chemical substance/The level of expressed mRNA in the absence of chemical substance,yeast gene YDR258C,13.3
same,The level of expressed mRNA in the presence of chemical substance/The level of expressed mRNA in the absence of chemical substance,yeast gene YDR293C,1.2
same,The level of expressed mRNA in the presence of chemical substance/The level of expressed mRNA in the absence of chemical substance,yeast gene YDR436W,1.1
same,The level of expressed mRNA in the presence of chemical substance/The level of expressed mRNA in the absence of chemical substance,yeast gene YDR513W,3.1
same,The level of expressed mRNA in the presence of chemical substance/The level of expressed mRNA in the absence of chemical substance,yeast gene YDR519W,1.2
same,The level of expressed mRNA in the presence of chemical substance/The level of expressed mRNA in the absence of chemical substance,yeast gene YEL030W,2.5
same,The level of expressed mRNA in the presence of chemical substance/The level of expressed mRNA in the absence of chemical substance,yeast gene YEL039C,1.2
same,The level of expressed mRNA in the presence of chemical substance/The level of expressed mRNA in the absence of chemical substance,yeast gene YER042W,2.1
same,The level of expressed mRNA in the presence of chemical substance/The level of expressed mRNA in the absence of chemical substance,yeast gene YER057C,1.4
same,The level of expressed mRNA in the presence of chemical substance/The level of expressed mRNA in the absence of chemical substance,yeast gene YER103W,9.0
same,The level of expressed mRNA in the presence of chemical substance/The level of expressed mRNA in the absence of chemical substance,yeast gene YER125W,1.2
same,The level of expressed mRNA in the presence of chemical substance/The level of expressed mRNA in the absence of chemical substance,yeast gene YFL014W,5.8
same,The level of expressed mRNA in the presence of chemical substance/The level of expressed mRNA in the absence of chemical substance,yeast gene YFL016C,2.9
same,The level of expressed mRNA in the presence of chemical substance/The level of expressed mRNA in the absence of chemical substance,yeast gene YFL020C,1.4
same,The level of expressed mRNA in the presence of chemical substance/The level of expressed mRNA in the absence of chemical substance,yeast gene YFR052W,3.0
same,The level of expressed mRNA in the presence of chemical substance/The level of expressed mRNA in the absence of chemical substance,yeast gene YGL073W,2.4
same,The level of expressed mRNA in the presence of chemical substance/The level of expressed mRNA in the absence of chemical substance,yeast gene YGL115W,1.2
same,The level of expressed mRNA in the presence of chemical substance/The level of expressed mRNA in the absence of chemical substance,yeast gene YGL181W,2.3
same,The level of expressed mRNA in the presence of chemical substance/The level of expressed mRNA in the absence of chemical substance,yeast gene YGR088W,3.2
same,The level of expressed mRNA in the presence of chemical substance/The level of expressed mRNA in the absence of chemical substance,yeast gene YHL028W,0.4
same,The level of expressed mRNA in the presence of chemical substance/The level of expressed mRNA in the absence of chemical substance,yeast gene YHL046C,2.1
same,The level of expressed mRNA in the presence of chemical substance/The level of expressed mRNA in the absence of chemical substance,yeast gene YHR030C,2.5
same,The level of expressed mRNA in the presence of chemical substance/The level of expressed mRNA in the absence of chemical substance,yeast gene YHR057C,1.2
same,The level of expressed mRNA in the presence of chemical substance/The level of expressed mRNA in the absence of chemical substance,yeast gene YHR104W,2.3
same,The level of expressed mRNA in the presence of chemical substance/The level of expressed mRNA in the absence of chemical substance,yeast gene YIL011W,0.5
same,The level of expressed mRNA in the presence of chemical substance/The level of expressed mRNA in the absence of chemical substance,yeast gene YIL033C,1.3
same,The level of expressed mRNA in the presence of chemical substance/The level of expressed mRNA in the absence of chemical substance,yeast gene YIR037W,3.8
same,The level of expressed mRNA in the presence of chemical substance/The level of expressed mRNA in the absence of chemical substance,yeast gene YIR038C,4.5
same,The level of expressed mRNA in the presence of chemical substance/The level of expressed mRNA in the absence of chemical substance,yeast gene YJL128C,1.7
same,The level of expressed mRNA in the presence of chemical substance/The level of expressed mRNA in the absence of chemical substance,yeast gene YJL158C,0.5
same,The level of expressed mRNA in the presence of chemical substance/The level of expressed mRNA in the absence of chemical substance,yeast gene YJL159W,1.2
same,The level of expressed mRNA in the presence of chemical substance/The level of expressed mRNA in the absence of chemical substance,yeast gene YJL165C,1.0
same,The level of expressed mRNA in the presence of chemical substance/The level of expressed mRNA in the absence of chemical substance,yeast gene YJR045C,3.0
same,The level of expressed mRNA in the presence of chemical substance/The level of expressed mRNA in the absence of chemical substance,yeast gene YJR090C,1.2
same,The level of expressed mRNA in the presence of chemical substance/The level of expressed mRNA in the absence of chemical substance,yeast gene YKL161C,1.7
same,The level of expressed mRNA in the presence of chemical substance/The level of expressed mRNA in the absence of chemical substance,yeast gene YKL163W,1.6
same,The level of expressed mRNA in the presence of chemical substance/The level of expressed mRNA in the absence of chemical substance,yeast gene YKL164C,0.7
same,The level of expressed mRNA in the presence of chemical substance/The level of expressed mRNA in the absence of chemical substance,yeast gene YKL210W,2.9
same,The level of expressed mRNA in the presence of chemical substance/The level of expressed mRNA in the absence of chemical substance,yeast gene YKR053C,1.8
same,The level of expressed mRNA in the presence of chemical substance/The level of expressed mRNA in the absence of chemical substance,yeast gene YLL024C,2.4
same,The level of expressed mRNA in the presence of chemical substance/The level of expressed mRNA in the absence of chemical substance,yeast gene YLL026W,6.6
same,The level of expressed mRNA in the presence of chemical substance/The level of expressed mRNA in the absence of chemical substance,yeast gene YLL039C,1.5
same,The level of expressed mRNA in the presence of chemical substance/The level of expressed mRNA in the absence of chemical substance,yeast gene YLL060C,23.2
same,The level of expressed mRNA in the presence of chemical substance/The level of expressed mRNA in the absence of chemical substance,yeast gene YLR006C,1.1
same,The level of expressed mRNA in the presence of chemical substance/The level of expressed mRNA in the absence of chemical substance,yeast gene YLR109W,2.7
same,The level of expressed mRNA in the presence of chemical substance/The level of expressed mRNA in the absence of chemical substance,yeast gene YLR259C,2.6
same,The level of expressed mRNA in the presence of chemical substance/The level of expressed mRNA in the absence of chemical substance,yeast gene YML007W,2.5
same,The level of expressed mRNA in the presence of chemical substance/The level of expressed mRNA in the absence of chemical substance,yeast gene YML070W,3.9
same,The level of expressed mRNA in the presence of chemical substance/The level of expressed mRNA in the absence of chemical substance,yeast gene YMR021C,1.3
same,The level of expressed mRNA in the presence of chemical substance/The level of expressed mRNA in the absence of chemical substance,yeast gene YMR173W,8.2
same,The level of expressed mRNA in the presence of chemical substance/The level of expressed mRNA in the absence of chemical substance,yeast gene YMR186W,1.3
same,The level of expressed mRNA in the presence of chemical substance/The level of expressed mRNA in the absence of chemical substance,yeast gene YNL064C,1.8
same,The level of expressed mRNA in the presence of chemical substance/The level of expressed mRNA in the absence of chemical substance,yeast gene YNL160W,2.7
same,The level of expressed mRNA in the presence of chemical substance/The level of expressed mRNA in the absence of chemical substance,yeast gene YNL241C,7.4
same,The level of expressed mRNA in the presence of chemical substance/The level of expressed mRNA in the absence of chemical substance,yeast gene YNR076W,2.5
same,The level of expressed mRNA in the presence of chemical substance/The level of expressed mRNA in the absence of chemical substance,yeast gene YOL064C,2.7
same,The level of expressed mRNA in the presence of chemical substance/The level of expressed mRNA in the absence of chemical substance,yeast gene YOL161C,2.0
same,The level of expressed mRNA in the presence of chemical substance/The level of expressed mRNA in the absence of chemical substance,yeast gene YOR008C,1.0
same,The level of expressed mRNA in the presence of chemical substance/The level of expressed mRNA in the absence of chemical substance,yeast gene YOR009W,0.5
same,The level of expressed mRNA in the presence of chemical substance/The level of expressed mRNA in the absence of chemical substance,yeast gene YOR010C,0.7
same,The level of expressed mRNA in the presence of chemical substance/The level of expressed mRNA in the absence of chemical substance,yeast gene YOR027W,4.0
same,The level of expressed mRNA in the presence of chemical substance/The level of expressed mRNA in the absence of chemical substance,yeast gene YOR208W,2.0
same,The level of expressed mRNA in the presence of chemical substance/The level of expressed mRNA in the absence of chemical substance,yeast gene YPL059W,1.3
same,The level of expressed mRNA in the presence of chemical substance/The level of expressed mRNA in the absence of chemical substance,yeast gene YPL106C,1.8
same,The level of expressed mRNA in the presence of chemical substance/The level of expressed mRNA in the absence of chemical substance,yeast gene YPL140C,0.9
same,The level of expressed mRNA in the presence of chemical substance/The level of expressed mRNA in the absence of chemical substance,yeast gene YPL194W,3.1
same,The level of expressed mRNA in the presence of chemical substance/The level of expressed mRNA in the absence of chemical substance,yeast gene YPL223C,16.5
same,The level of expressed mRNA in the presence of chemical substance/The level of expressed mRNA in the absence of chemical substance,yeast gene YPL240C,2.6
same,The level of expressed mRNA in the presence of chemical substance/The level of expressed mRNA in the absence of chemical substance,yeast gene YPR005C,2.0
same,The level of expressed mRNA in the presence of chemical substance/The level of expressed mRNA in the absence of chemical substance,yeast gene YPR026W,3.1
